pIC50: −log10 of the molar value.

The target in the assay is CD73 (Homo sapiens (Human), UniProt P21589). In kind it is biochemical. Particulars: 1 mM NaH2PO4 in enzyme buffer, CD73 0.3 nM, AMP 15 uM.
CD73, sequence (P21589 27-574): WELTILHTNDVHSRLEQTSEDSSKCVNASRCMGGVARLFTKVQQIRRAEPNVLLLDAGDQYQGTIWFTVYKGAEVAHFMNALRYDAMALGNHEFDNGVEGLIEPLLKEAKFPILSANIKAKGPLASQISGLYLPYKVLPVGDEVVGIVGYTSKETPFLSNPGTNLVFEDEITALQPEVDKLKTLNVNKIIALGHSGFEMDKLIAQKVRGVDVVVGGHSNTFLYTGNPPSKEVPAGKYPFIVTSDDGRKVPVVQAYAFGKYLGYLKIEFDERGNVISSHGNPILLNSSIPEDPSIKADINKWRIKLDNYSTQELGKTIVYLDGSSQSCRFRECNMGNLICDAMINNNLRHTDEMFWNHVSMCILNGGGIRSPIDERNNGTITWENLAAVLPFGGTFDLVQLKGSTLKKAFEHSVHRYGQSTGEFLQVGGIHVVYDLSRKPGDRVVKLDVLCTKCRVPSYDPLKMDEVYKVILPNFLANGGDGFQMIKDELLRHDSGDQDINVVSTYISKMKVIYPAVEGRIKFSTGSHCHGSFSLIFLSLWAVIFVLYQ
One may read the pIC50 as the negative decadic logarithm of the IC50, by convention in mol/L. Read a high pIC50 as a low IC50. Consider `O=c1[nH]cc(-c2cc([C@H]3C[C@@H]3c3ccccn3)c3ncc(F)n3n2)c(=O)[nH]1` (racemic) [Example 178, 5-(3-fluoro-8-((1S,2S)-2-(pyridin-2-yl)cyclopropyl)imidazo[1,2-b]pyridazin-6-yl)pyrimidine-2,4(1H,3H)-dione], for which the pIC50 was 8.58.

As for `O=c1[nH]cc(-c2cc([C@H]3C[C@@H]3c3cncnc3)c3ncc(F)n3n2)c(=O)[nH]1` (racemic) [Example 179, 5-(3-fluoro-8-((1S,2S)-2-(pyrimidin-5-yl)cyclopropyl)imidazo[1,2-b]pyridazin-6-yl)pyrimidine-2,4(1H,3H)-dione], the pIC50 was 7.78.

In turn, `O=c1[nH]cc(-c2cc([C@H]3C[C@@H]3c3cccnc3)c3ncc(F)n3n2)c(=O)[nH]1` (racemic) [Example 180, 5-(3-fluoro-8-((1S,2S)-2-(pyridin-3-yl)cyclopropyl)imidazo[1,2-b]pyridazin-6-yl)pyrimidine-2,4(1H,3H)-dione] gave a pIC50 of 8.66. Compared with the last compound, the pIC50 is 0.88 log units higher.

`O=c1[nH]cc(-c2cc([C@H]3C[C@@H]3c3ccncc3)c3ncc(F)n3n2)c(=O)[nH]1` (racemic) [Example 181, 5-(3-fluoro-8-((1S,2S)-2-(pyridin-4-yl)cyclopropyl)imidazo[1,2-b]pyridazin-6-yl)pyrimidine-2,4(1H,3H)-dione] gave a negative logarithm of the IC50 (pIC50) of 8.62.

The compound `O=c1[nH]cc(-c2cc([C@H]3C[C@@H]3c3ccc(Cl)cc3)c3ncc(F)n3n2)c(=O)[nH]1` (racemic) [Example 182, 5-(8-((1S,2S)-2-(4-chlorophenyl)cyclopropyl)-3-fluoroimidazo[1,2-b]pyridazin-6-yl)pyrimidine-2,4(1H,3H)-dione] gave a pIC50 of 8.91. Compared with the last compound, the pIC50 is 0.29 log units higher.

As to `O=c1[nH]cc(-c2cc([C@H]3C[C@@H]3c3ccc(C(F)(F)F)cc3)c3ncc(F)n3n2)c(=O)[nH]1` (racemic) [Example 183, 5-(3-fluoro-8-((1S,2S)-2-(4-(trifluoromethyl)phenyl)cyclopropyl)imidazo[1,2-b]pyridazin-6-yl)pyrimidine-2,4(1H,3H)-dione], the pIC50 is 8.60.

Compound `Cn1cc([C@H]2C[C@@H]2c2cc(-c3c[nH]c(=O)[nH]c3=O)nn3ccnc23)ccc1=O` (racemic) [Example 184, 5-(8-((1S,2S)-2-(1-methyl-6-oxo-1,6-dihydropyridin-3-yl)cyclopropyl)imidazo[1,2-b]pyridazin-6-yl)pyrimidine-2,4(1H,3H)-dione] showed a pIC50 of 8.54.

`CC1(C)C(=O)N(CC(F)(F)F)c2cc([C@H]3C[C@@H]3c3cc(-c4c[nH]c(=O)[nH]c4=O)nn4c(Cl)cnc34)ccc21` (racemic) [Example 212, 5-[3-chloro-8-[(1S,2S)-2-[3,3-dimethyl-2-oxo-1-(2,2,2-trifluoroethyl)indolin-6-yl]cyclopropyl]imidazo[1,2-b]pyridazin-6-yl]-1H-pyrimidine-2,4-dione] showed a pIC50 of 8.91. This pIC50 lies 0.37 log units higher than the previous one.

As for `O=c1[nH]cc(-c2cc([C@H]3C[C@@H]3c3ccc4c(F)nn(CC(F)(F)F)c4c3)c3ncc(Cl)n3n2)c(=O)[nH]1` (racemic) [Example 213, 5-[3-chloro-8-[(1S,2S)-2-[3-fluoro-1-(2,2,2-trifluoroethyl)indazol-6-yl]cyclopropyl]imidazo[1,2-b]pyridazin-6-yl]-1H-pyrimidine-2,4-dione], the pIC50 is 9.04.

`O=c1[nH]cc(-c2cc([C@H]3C[C@@H]3c3ccc4ncsc4c3)c3nccn3n2)c(=O)[nH]1` (racemic) [Example 276, 5-(8-((1S,2S)-2-(benzo[d]thiazol-6-yl)cyclopropyl)imidazo[1,2-b]pyridazin-6-yl)pyrimidine-2,4(1H,3H)-dione] showed a negative-log IC50 (pIC50) of 9.04.

In turn, `O=c1[nH]cc(-c2cc([C@H]3C[C@@H]3c3ccc4c(c3)OC(F)(F)O4)c3ncc(F)n3n2)c(=O)[nH]1` (racemic) [Example 278, 5-(8-((1S,2S)-2-(2,2-difluorobenzo[d][1,3]dioxol-5-yl)cyclopropyl)-3-fluoroimidazo[1,2-b]pyridazin-6-yl)pyrimidine-2,4(1H,3H)-dione] had a pIC50 of 8.43.

With `O=c1[nH]cc(-c2cc([C@H]3C[C@@H]3c3ccc(OC(F)(F)F)cc3F)c3nccn3n2)c(=O)[nH]1` (racemic) [Example 280, 5-(8-((1S,2S)-2-(2-fluoro-4-(trifluoromethoxy)phenyl)cyclopropyl)imidazo[1,2-b]pyridazin-6-yl)pyrimidine-2,4(1H,3H)-dione], the negative logarithm of the IC50 (pIC50) was 8.22.

Regarding `COC(=O)c1ccc([C@H]2C[C@@H]2c2cc(-c3c[nH]c(=O)[nH]c3=O)nn3ccnc23)cc1` (racemic) [Example 281, methyl 4-((1S,2S)-2-(6-(2,4-dioxo-1,2,3,4-tetrahydropyrimidin-5-yl)imidazo[1,2-b]pyridazin-8-yl)cyclopropyl)benzoate], the negative logarithm of the IC50 (pIC50) is 8.81.

In turn, `COC(=O)c1cccc([C@H]2C[C@@H]2c2cc(-c3c[nH]c(=O)[nH]c3=O)nn3ccnc23)c1` (racemic) [Example 282, methyl 3-((1S,2S)-2-(6-(2,4-dioxo-1,2,3,4-tetrahydropyrimidin-5-yl)imidazo[1,2-b]pyridazin-8-yl)cyclopropyl)benzoate] showed a negative-log IC50 (pIC50) of 8.74.

Take `NC(=O)c1cccc([C@H]2C[C@@H]2c2cc(-c3c[nH]c(=O)[nH]c3=O)nn3ccnc23)c1` (racemic) [Example 284, 3-((1S,2S)-2-(6-(2,4-dioxo-1,2,3,4-tetrahydropyrimidin-5-yl)imidazo[1,2-b]pyridazin-8-yl)cyclopropyl)benzamide]: the pIC50 is 8.97.

In turn, `CNC(=O)c1ccc([C@H]2C[C@@H]2c2cc(-c3c[nH]c(=O)[nH]c3=O)nn3ccnc23)cc1` (racemic) [Example 285, 4-((1S,2S)-2-(6-(2,4-dioxo-1,2,3,4-tetrahydropyrimidin-5-yl)imidazo[1,2-b]pyridazin-8-yl)cyclopropyl)-N-methylbenzamide] had a negative-log IC50 (pIC50) of 8.85.

For the compound `CNC(=O)c1cccc([C@H]2C[C@@H]2c2cc(-c3c[nH]c(=O)[nH]c3=O)nn3ccnc23)c1` (racemic) [Example 286, 3-((1S,2S)-2-(6-(2,4-dioxo-1,2,3,4-tetrahydropyrimidin-5-yl)imidazo[1,2-b]pyridazin-8-yl)cyclopropyl)-N-methylbenzamide], the pIC50 is 8.92.

With `CN(C)C(=O)c1cccc([C@H]2C[C@@H]2c2cc(-c3c[nH]c(=O)[nH]c3=O)nn3ccnc23)c1` (racemic) [Example 287, 3-((1S,2S)-2-(6-(2,4-dioxo-1,2,3,4-tetrahydropyrimidin-5-yl)imidazo[1,2-b]pyridazin-8-yl)cyclopropyl)-N,N-dimethylbenzamide], the negative-log IC50 (pIC50) was 8.41.

For `CN(C)C(=O)c1ccc([C@H]2C[C@@H]2c2cc(-c3c[nH]c(=O)[nH]c3=O)nn3ccnc23)cc1` (racemic) [Example 288, 4-((1S,2S)-2-(6-(2,4-dioxo-1,2,3,4-tetrahydropyrimidin-5-yl)imidazo[1,2-b]pyridazin-8-yl)cyclopropyl)-N,N-dimethylbenzamide], the pIC50 was 8.16.

For the compound `O=C(c1ccc([C@H]2C[C@@H]2c2cc(-c3c[nH]c(=O)[nH]c3=O)nn3ccnc23)cc1)N1CCC1` (racemic) [Example 289, 5-(8-((1S,2S)-2-(4-(azetidine-1-carbonyl)phenyl)cyclopropyl)imidazo[1,2-b]pyridazin-6-yl)pyrimidine-2,4(1H,3H)-dione], the negative logarithm of the IC50 (pIC50) is 8.64.

Compound `CC1CN(C(=O)c2ccc([C@H]3C[C@@H]3c3cc(-c4c[nH]c(=O)[nH]c4=O)nn4ccnc34)cc2)C1` (racemic) [Example 290, 5-(8-((1S,2S)-2-(4-(3-methylazetidine-1-carbonyl)phenyl)cyclopropyl)imidazo[1,2-b]pyridazin-6-yl)pyrimidine-2,4(1H,3H)-dione] showed a pIC50 of 8.46.

As to `O=C(c1ccc([C@H]2C[C@@H]2c2cc(-c3c[nH]c(=O)[nH]c3=O)nn3ccnc23)cc1)N1CC(C(F)(F)F)C1` (racemic) [Example 291, 5-(8-((1S,2S)-2-(4-(3-(trifluoromethyl)azetidine-1-carbonyl)phenyl)cyclopropyl)imidazo[1,2-b]pyridazin-6-yl)pyrimidine-2,4(1H,3H)-dione], the pIC50 was 8.49.

`O=C(c1ccc([C@H]2C[C@@H]2c2cc(-c3c[nH]c(=O)[nH]c3=O)nn3ccnc23)cc1)N1CC(F)(F)C1` (racemic) [Example 292, 5-(8-((1S,2S)-2-(4-(3,3-difluoroazetidine-1-carbonyl)phenyl)cyclopropyl)imidazo[1,2-b]pyridazin-6-yl)pyrimidine-2,4(1H,3H)-dione] gave a negative logarithm of the IC50 (pIC50) of 8.68. The pIC50 values of the last two compounds are within 0.2 log units of each other.

Compound `CC1(C)CN(C(=O)c2ccc([C@H]3C[C@@H]3c3cc(-c4c[nH]c(=O)[nH]c4=O)nn4ccnc34)cc2)C1` (racemic) [Example 293, 5-(8-((1S,2S)-2-(4-(3,3-dimethylazetidine-1-carbonyl)phenyl)cyclopropyl)imidazo[1,2-b]pyridazin-6-yl)pyrimidine-2,4(1H,3H)-dione] gave a negative-log IC50 (pIC50) of 8.32.

The compound `O=C(c1cccc([C@H]2C[C@@H]2c2cc(-c3c[nH]c(=O)[nH]c3=O)nn3ccnc23)c1)N1CCC1` (racemic) [Example 294, 5-(8-((1S,2S)-2-(3-(azetidine-1-carbonyl)phenyl)cyclopropyl)imidazo[1,2-b]pyridazin-6-yl)pyrimidine-2,4(1H,3H)-dione] had a negative logarithm of the IC50 (pIC50) of 8.99.

On to `CC1CN(C(=O)c2cccc([C@H]3C[C@@H]3c3cc(-c4c[nH]c(=O)[nH]c4=O)nn4ccnc34)c2)C1` (racemic) [Example 295, 5-(8-((1S,2S)-2-(3-(3-methylazetidine-1-carbonyl)phenyl)cyclopropyl)imidazo[1,2-b]pyridazin-6-yl)pyrimidine-2,4(1H,3H)-dione], for which the pIC50 is 8.72.

In turn, `O=C(c1cccc([C@H]2C[C@@H]2c2cc(-c3c[nH]c(=O)[nH]c3=O)nn3ccnc23)c1)N1CC(C(F)(F)F)C1` (racemic) [Example 296, 5-(8-((1S,2S)-2-(3-(3-(trifluoromethyl)azetidine-1-carbonyl)phenyl)cyclopropyl)imidazo[1,2-b]pyridazin-6-yl)pyrimidine-2,4(1H,3H)-dione] had a negative logarithm of the IC50 (pIC50) of 8.67.

`O=C(c1cccc([C@H]2C[C@@H]2c2cc(-c3c[nH]c(=O)[nH]c3=O)nn3ccnc23)c1)N1CC(F)(F)C1` (racemic) [Example 297, 5-(8-((1S,2S)-2-(3-(3,3-difluoroazetidine-1-carbonyl)phenyl)cyclopropyl)imidazo[1,2-b]pyridazin-6-yl)pyrimidine-2,4(1H,3H)-dione] showed a pIC50 of 8.82.

The values above are taken from patent publication US20240043427A1 (Gilead Sciences, Inc., priority 2020, published 2024).
